Measured values reported in article PMC9694965, “Design of 4-Substituted Sulfonamidobenzoic Acid Derivatives Targeting Coxsackievirus B3” (Life, 2022).

Experiments:
CVB3 Nancy [1] = experiment: Cytoprotection assay (MTT) in Vero cells infected with CVB3 Nancy; type: cell-based, Coxsackievirus B3
Protocol: (§1) Vero cells were seeded in 96-well plates in 24 h before the assay. On the assay day, the cells were washed with saline and tested compounds in appropriate concentrations (300–3 μg/mL) in MEM without FBS were added to cells. No compounds were added to virus control wells. The plates were incubated for 1 h at 37 °C at 5% CO2. The cells were then infected with CVB3 Nancy (m.o.i range of 1–0.001) and incubated for 72 h at 37 °C at 5% CO2. No virus was added to the cytotoxicity control wells. Cell viability was then assessed using an MTT test with the following procedure. The cells were washed with saline, and a solution of 3-(4,5-dimethylthiazolyl-2) 2,5-diphenyltetrazolium bromide (ICN Biochemicals Inc., Aurora, OH, USA) ([…]) in MEM was added to the wells (100 µL per well). After 2 h of incubation at 37 °C in 5% CO2, the supernatant from wells was discarded, and the formazan residue was dissolved in DMSO (100 µL per well). The optical density of cells was then measured on a Multiskan multifunctional reader (Thermo Fisher Scientific, Shanghai, China) at a wavelength of 540 nm.
The cytoprotective activity of compounds was considered to be their ability to increase the values of OD compared to control wells (using only a virus, without drugs). Based on the results obtained, the values of IC50, i.e., the concentration of compounds that result in 50% cells protection were calculated for m.o.i. 0.001 using GraphPad Prism 6.01 software.

[2] = Cytotoxicity assay (MTT) in Vero cells; type: cell-based; settings: African green monkey
Protocol: as §1
(§2) The microtetrazolium test (MTT) was used to study the cytotoxicity of the compounds. The permissive cell line Vero was seeded in 96-well plates in Eagles minimal essential medium (MEM) supplemented with 10% FBS. After 24 h, the media were removed, and the wells were washed with saline. Compounds were dissolved in DMSO, and a series of two-fold dilutions of each compound in MEM without FBS were prepared and added to the cells in triplicates. […] The MTT was then performed as described above. Next, the optical density of cells was measured on a Multiskan multifunctional reader (Thermo Fisher Scientific, Shanghai, China) at a wavelength of 540 nm and plotted against the concentration of the compounds to generate the dose–response curve. The 50% cytotoxic dose (CC50) of each compound (i.e., the compound concentration that causes the death of 50% of cells in a culture, or decreases the optical density twice, as compared to the control wells) was calculated using a four-parameter logistic nonlinear regression model (GraphPad Prism 6.01).

Vero cells = experiment: Cytotoxicity assay (MTT) in Vero cells; type: cell-based; settings: incubation with the compound only
Protocol: as §1, §2

[3] = tested on: Coxsackievirus B3 (Nancy); experiment: Viral yield reduction assay in Vero cells; type: cell-based
Protocol: Coxsackievirus B3 (CVB3, strain Nancy) was obtained from the collection of viruses of the Pasteur Institute (St. Petersburg, Russia). The permissive cell line Vero (ATCC #CCL-81) was used in the study. Infectious titers (in a 50%-tissue culture infection dose, TCID50) were determined in Vero cells for CVB3 by endpoint dilution assay using the following procedure. Permissive cells were seeded into 96-wells plates in Eagles minimal essential medium (MEM) supplemented with 5% fetal bovine serum (FBS). After 24 h, the medium was aspirated, the wells were washed with saline, fresh MEM without FBS was added to the wells and the cells were infected with serial tenfold dilutions of virus stocks (100 µL per well, 4 wells for each dilution). The plates were incubated at +37 °C in 5% CO2 and observed daily for cytopathic effect (CPE). After 72 h the viral titer was calculated in TCID50 using the method of Spearmen-Carber.
The antiviral activity of the compounds was evaluated using viral yield reduction assay. The respective permissive cell line Vero was seeded in MEM supplemented with 5% FBS in 24-well plates. When the cell confluence reached 100%, the compounds tested were dissolved in DMSO, and a series of three-fold dilutions of each compound in MEM without FBS was added to the cells, and incubated at 37 °C in 5% CO2. After 1 h, the media were discarded; equal volumes of fresh serial dilutions of each compound and viral suspension in MEM without FBS at […] were added. In control wells, only MEM without FBS was added. No compounds were added in the virus control wells. The plates were incubated at 4 °C for 1 h. The unbound virus was then washed away and, again, three-fold dilutions of each compound (the final concentration 50–0.6 µg/mL) in MEM without FBS were added to the wells. After 24 h of incubation at 37 °C in 5% CO2, the infectious titer of viral progeny (in TCID50) for each compound concentration, cell control, and virus control wells were determined in permissive cell lines by endpoint dilution assay as described above.
The titer of virus progeny was plotted against log concentration of the compounds tested to generate the dose–response curve. The 50% inhibition concentration (IC50) of each compound tested (i.e., the compound concentration that decreases the infectious viral progeny titer twice, as compared to the control wells) was calculated using a four-parameter logistic nonlinear regression model (GraphPad Prism 6.01).

CVB3 Nancy [4] = experiment: Thermostability assay (capsid binding, heat inactivation of virus); design: species or system Coxsackievirus B3; settings: pre-incubation 30 min at 37 °C, thermal gradient 37-55 °C for 2 min
Protocol: CVB3 Nancy was pre-incubated with the compounds tested or an equal volume of MEM (virus control) for 30 min at +37 °C in sterile thin-walled 200 μL PCR-tubes (7 tubes per each treatment condition) in BioRad CFX PCR-machine. The thermal gradient of 37–55 °C for 2 min was then applied, followed by rapid cooling to 4 °C. Subsequently, the infectious virus load at each thermal condition for each compound tested was quantified by end-point dilution assay.

SMILES: O=C(O)c1ccc(NS(=O)(=O)c2ccc(NC(=O)c3ccccc3C(=O)O)cc2)cc1 [Compound 4, 2-((4-(N-(4-Carboxyphenyl)sulfamoyl)phenyl)carbamoyl)benzoic acid]
- EC50 (CVB3 Nancy [1]; Enterovirus B, Vero cells infected with CVB3 Nancy at m.o.i. 0.001, 72 h, MTT, read-out: EC50 (50% cytoprotective concentration)): 13.2 ± 1.49 µM
- SI (selectivity index, ratio CC50/IC50) (CVB3 Nancy [1]; cytoprotection assay, CC50 72 h / EC50): >17.2
- CC50 at 24 h ([2]; 24 h incubation with the compound only): > 1140 µM
- CC50 at 72 h ([2]; 72 h incubation with the compound only): > 227 µM
- CC50 (Vero cells): exceeded the maximum concentration used in the assay
- IC50 ([3]; Enterovirus B, B3 / CVB3, viral yield reduction, Vero cells, CVB3 Nancy at m.o.i. 0.01, 24 h, read-out: IC50 (50% virus-inhibiting concentration)): 4.29 ± 1.79 µM
- SI (selectivity index, ratio CC50/IC50) ([3]; viral yield reduction assay, CC50 24 h / IC50): >264
- Temperature to which infectivity of CVB3 was preserved (CVB3 Nancy [4]; concentrations greatly exceeding IC50): 52.4 °C
- Effect on heat inactivation of CVB3 (capsid stabilization) (CVB3 Nancy [4]; versus virus control): heat inactivation of CVB3 changed to higher temperatures
- melting point: 203 to 205 °C
